Measured values from patent EP1078002B1, “PEPTIDE ANTIANGIOGENIC DRUGS” (ABBOTT LABORATORIES, priority 1998, dated 1999).
Peptide text beside a SMILES is read from it.

Columns and labels:
[1] = system: Human Microvascular Endothelial Cells; experiment: Human microvascular endothelial cell (HMVEC) migration assay, modified Boyden chamber; assay type: cell-based; details: activators 15 ng/ml bFGF/VEGF, 4 hours at 37 °C
Method: The human microvascular endothelial (HMVEC) migration assay was run according to the procedure of S. S. Tolsma, O. V. Volpert, D. J. Good, W. F. Frazier, P. J. Polverini and N. Bouck, J. Cell Biol. 122, 497-511 (1993).
The HMVEC migration assay was carried out using Human Microvascular Endothelial Cells-Dermal (single donor) and Human Microvascular Endothelial Cells, (neonatal). The BCE or HMVEC cells were starved overnight in DME containing 0.1 % bovine serum albumin (BSA). Cells were then harvested with trypsin and resuspended in DME with 0.1 % BSA at a concentration of 1.5 X 10^6 cells per ml. Cells were added to the bottom of a 48 well modified Boyden chamber (Nucleopore Corporation, Cabin John, MD). The chamber was assembled and inverted, and cells were allowed to attach for 2 hours at 37 °C to polycarbonate chemotaxis membranes (5 µm pore size) that had been soaked in 0.1% gelatin overnight and dried. The chamber was then reinverted, and test substances (total volume of 50 µl), including activators, 15 ng/ml bFGF/VEGF, were added to the wells of the upper chamber. The apparatus was incubated for 4 hours at 37 °C. Membranes were recovered, fixed and stained (Diff Quick, Fisher Scientific) and the number of cells that had migrated to the upper chamber per […] high power fields counted. Background migration to DME + 0.1 BSA was subtracted and the data reported as the number of cells migrated per 10 high power fields (400X) or, when results from multiple experiments were combined, as the percent inhibition of migration compared to a positive control.

[2] = system: Rat Cornea Neovascularization; experiment: Rat cornea neovascularization (bFGF/Hydron pellet implantation); assay type: in vivo, Sprague Dawley rats; details: day seven post-implantation
Method: […] Louis, MO) were pipetted into the tip of a sterile Teflon rod. After drying for 1-2 hours, the pellets were stored at 4 °C.
A small (about 2 mm) radial incision at 1 mm from the center of the cornea was performed in anesthetized Sprague Dawley rats. With a curved iris spatula, an intrastromal pocket was made to a distance of 1 mm from the limbus-the circular blood vessels that surround the cornea. A single pellet was implanted. Antibiotic ointment (neosporin) was applied post surgery to the operated eye to prevent infection and to decrease inflammation.
At day seven post-implantation, neovascularization was measured through a slitlamp biomicroscopy (Nikon NS-1), connected to an image analysis system (Leica Qwin). The response was calculated by colorimetrically detecting the area of new blood vessels, and calculating the new vessel surface area in µm^2.

`CCC[C@H](NC(=O)[C@@H](NC(=O)[C@H](NC(=O)[C@@H](NC(=O)CNC(=O)CN(C)C(=O)CCCCCNC(C)=O)C(C)C)[C@H](C)CC)[C@@H](C)O)C(=O)N[C@H](C(=O)N[C@@H](CCCNC(=N)N)C(=O)N1CCC[C@H]1C(=O)NCC)[C@@H](C)CC` [Example 63, N-[6-N'-Acetyl-(CH2)5C(O)]-Sar-Gly-Val-D-Ile-Thr-Nva-Ile-Arg-ProNHCH2CH3] (HELM PEPTIDE1{[ac].[O=C(CCCCCN[*:1])[*:2]].[Sar].G.V.[dI].T.[Nva].I.R.P.[CCN[*:1]]}$$$$V2.0) was tested, and the “% Inhib. @ 10 nM” value [1] was 82.4%.
In the case of “N-Cyclohexylacetyl-Sar-Gly-Val-D-Ile-Tlu-Nva-Ile-Arg-ProNHCH2CH3 [Example 52]”, the “% Inhib. @ 20 nM” value [1] is reported as 46.5%.
In the case of `CCC[C@H](NC(=O)[C@@H](NC(=O)[C@H](NC(=O)[C@@H](NC(=O)CNC(=O)CN(C)C(C)=O)C(C)C)[C@H](C)CC)[C@@H](C)O)C(=O)N[C@H](C(=O)N[C@@H](CCCNC(=N)N)C(=O)N1CCC[C@H]1C(=O)NCCC1CCCCC1)[C@@H](C)CC` [Example 12, N-Ac-Sar-Gly-Val-D-Ile-Thr-Nva-Ile-Arg-ProNHCH2CH2-cyclohexyl] (HELM PEPTIDE1{[ac].[Sar].G.V.[dI].T.[Nva].I.R.P.[C1CCC(CCN[*:1])CC1]}$$$$V2.0), the “% Inhib. @ 20 nM” value [1] is reported as 55.8%.
In the case of “N-Ac-Sar-Gly-Val-D-Ile-Thr-Nva-Ile-Arg-ProNHethyl-1-(R)-cyclohexyl [Example 8]”, the “% Inhib. @ 10 nM” value [1] is reported as 88.2%.
`CCCCCCCC[C@H](NC(=O)[C@@H](NC(=O)[C@H](NC(=O)[C@@H](NC(=O)CNC(=O)CN(C)C(C)=O)C(C)C)[C@H](C)CC)[C@@H](C)O)C(=O)N[C@H](C(=O)N[C@@H](CCCNC(=N)N)C(=O)N1CCC[C@H]1C(=O)NCC)[C@@H](C)CC` [Example 50, N-Ac-Sar-Gly-Val-D-Ile-Thr-Octylgly-Ile-Arg-ProNHCH2CH3] (HELM PEPTIDE1{[ac].[Sar].G.V.[dI].T.[CCCCCCCC[C@H](N[*:1])C(=O)[*:2]].I.R.P.[CCN[*:1]]}$$$$V2.0) was tested, and the “% Inhib. @ 20 nM” value [1] was 71.6%.
`CCC[C@H](NC(=O)[C@@H](NC(=O)[C@H](NC(=O)[C@@H](NC(=O)CNC(=O)CN(C)C(C)=O)C(C)C)[C@H](C)CC)[C@@H](C)O)C(=O)N[C@H](C(=O)N[C@@H](CCCNC(=N)N)C(=O)N1CCC[C@H]1C(=O)NCC)[C@@H](C)CC` [Example 1, N-Ac-Sar-Gly-Val-D-Ile-Thr-Nva-Ile-Arg-ProNHCH2CH3] (HELM PEPTIDE1{[ac].[Sar].G.V.[dI].T.[Nva].I.R.P.[CCN[*:1]]}$$$$V2.0) was tested, and the “% Inhibition” value ([2]; dose 5 µM in pellet with 100 ng bFGF, 5 corneas) was 74.8%, the “% Inhibition” value ([2]; dose 6 µM in pellet with 100 ng bFGF, 4 corneas) was 71.5% and the “% Inhibition” value ([2]; dose 10 µM in pellet with 100 ng bFGF, 6 corneas) was 92.6%.
`CCC[C@H](NC(=O)[C@@H](NC(=O)[C@H](NC(=O)[C@@H](NC(=O)CNC(=O)CN(C)C(C)=O)C(C)C)[C@H](C)CC)[C@@H](C)O)C(=O)N[C@H](C(=O)N[C@@H](CCCNC(=N)N)C(=O)N1CCC[C@H]1C(=O)NC)[C@@H](C)CC` [Example 3, N-Ac-Sar-Gly-Val-D-Ile-Thr-Nva-Ile-Arg-ProNHCH3] (HELM PEPTIDE1{[ac].[Sar].G.V.[dI].T.[Nva].I.R.P.[CN[*:1]]}$$$$V2.0) was tested, and the “% Inhib. @ 20 nM” value [1] was 56.0%.
